These results are taken from patent US20120179089A1, “SUBSTITUTED BIPYRIDINES FOR USE IN ORGANIC LIGHT-EMITTING DEVICES” (Nitto Denko Corporation, priority 2010, published 2012).

The test system of data set [1] is CHO-K1 (Chinese Hamster Ovarian Cancer, ATCC, CRL-2243) cell line. The data set can be described thus: Efficacy study: ALA plus red OLED light, MTT cell viability. The conditions noted are these: ALA about 1 mM or higher, 16 hrs incubation, OLED light (630 nm) dose of 30 J/cm^2, FIG. 10. The data set is classed as cell-based.
A further data set deals with CHO-K1 cells. The experiment in a line: Optical microscope images of cells after red light irradiation. It counts as cell-based, Chinese Hamster. The note with it: ALA treated CHO-K1 cells after 30 J/cm^2 red light (630 nm) irradiation; FIG. 9B.
Data set [2] deals with CHO-K1 (Chinese Hamster Ovarian Cancer, ATCC, CRL-2243) cell line. The data set can be described thus: Conversion of ALA to protoporphyrin IX (PpIX) in cells, fluorescence emission. It counts as cell-based. The note with it: ALA 1 mM and 2 mM, about 16 hrs at 37° C.; fluorescence emission at 635 nm.
Data set [3] in a line: Solubility observed on isolation. It counts as physicochemical. The procedure: 6,6′-di(benzo[d]thiazol-2-yl)-3,3′-bipyridine (17). A mixture of 9 (0.591 g, 2.03 mmol), 16 (0.700 g, 2.07 mmol), tetrakis(triphenylphosphine)palladium(0) (117 mg, 102 μmol), Na2CO3 (1.59 g, 15.0 mmol), H2O (15 mL) and THF (25 mL) was degassed with argon for about 20 min while stirring. The stirring reaction mixture was then maintained under argon at about 80° C. for about 19 h. Upon completion, the mixture was cooled to RT, filtered and the precipitate collected as a white solid (0.83 g, 97%).
2-(6′-(benzo[d]thiazol-2-yl)-3,3′-bipyridin-6-yl)benzo[d]oxazole (18). Following the procedure for 17, 11 (0.558 g, 2.03 mmol), 16 (0.700 g, 2.07 mmol),), tetrakis(triphenylphosphine)palladium(0) (117 mg, 102 μmol), Na2CO3 (1.59 g, 15.0 mmol), H2O (15 mL) and THF (25 mL) yielded an insoluble white solid (0.70 g, 84%) after filtration.

For another data set, the system named is pathological myopia. The data set can be described thus: Phototherapy of pathological myopia with red light emitting OLED. It counts as in vivo, person. The conditions noted are these: about 6 mg/m^2 intravenously; retina illuminated about 15 minutes after start of infusion.
The test system of data set [4] is age-related macular degeneration. The experiment in a line: Phototherapy of age-related macular degeneration with red light emitting OLED. The data set is classed as in vivo, person. The note with it: about 6 mg/m^2 intravenously; retina illuminated about 15 minutes after start of infusion.
Data set [5] relates to presumed ocular histoplasmosis. More on the design: species or system person. The note with it: in vivo, iv.

Turning to `NCC(=O)CCC(=O)O` [ALA, 5-aminolevulinic acid], in data set [1], the cell death is given as at least 90%. For the same compound, the “cell morphology / cell death by optical microscope” value in the data set with CHO-K1 cells is reported as “significant cell death”. Further, the “generation of PpIX” value in data set [2] is recorded as “confirmed”.

`c1ccc2sc(-c3ccc(-c4ccc(-c5nc6ccccc6s5)nc4)cn3)nc2c1` [Compound 17, 6,6′-di(benzo[d]thiazol-2-yl)-3,3′-bipyridine]: the solubility entry in data set [3] was “insoluble in numerous common organic solvents”.

As to `c1ccc2oc(-c3ccc(-c4ccc(-c5nc6ccccc6s5)nc4)cn3)nc2c1` [Compound 18, 2-(6′-(benzo[d]thiazol-2-yl)-3,3′-bipyridin-6-yl)benzo[d]oxazole], the solubility result in data set [3] is “insoluble”.

As to `C=Cc1c(C)c2cc3nc(cc4[nH]c(cc5nc(cc1[nH]2)C(C)=C5CCC(=O)O)c(CCC(=O)OC)c4C)[C@@]1(C)C3=CC=C(C(=O)OC)[C@H]1C(=O)OC` [Verteporphin], the “patient's vision” value (with pathological myopia; in data set [4]; in data set [5]) was “anticipated to be stabilized” throughout.
